The values below come from patent US20140066370A1, “Polypeptide Conjugate” (priority 2009, published 2014).

Series [1] relates to NIH/Swiss female mice. The series can be described thus: basal glucose lowering assay (Oral Glucose Tolerance Test; OGTT). It counts as in vivo, mouse. The note with it: IP at t=-5 min, 4-hour fasted mice, glucose gavage […], blood glucose at t=30 minutes. As to the method:
Polypeptide Conjugates and parent compounds were analyzed in an in vivo basal glucose lowering assay. This assay reflects the conjugate polypeptide's ability to enhance insulin-mediated glucose clearance of orally administered glucose challenge (Oral Glucose Tolerance Test; OGTT). The OGTT is used to diagnose diabetes, although the simpler fasting plasma glucose test, which measures a subject's plasma glucose level after fasting for at least eight hours, is preferred. The following procedure was used: Test compound at various concentrations was injected intraperitoneally (IP) at t=−5 min to 4-hour fasted NIH/Swiss female mice. Glucose gavage (1.5 g/kg) was given at t=0. Sample was taken at t=30 minutes as tail blood glucose using a OneTouch® Ultra® (LifeScan, Inc., Milpitas, Calif.). Significant effects were identified by ANOVA (p<0.05), followed by Dunnett's post test using GraphPad Prism version 4.00 for Windows (GraphPad Software, San Diego Calif.).

The subject of series [2] is ob/ob mice. The series can be described thus: 28 days of exposure in ob/ob mice (obese and diabetic). It is filed as in vivo, mouse.
The conditions of series [3]: human kidney brush border membrane matrices, 5 hr incubation; detection limit 10%.

Consider “HGEGTFTSDLSKQLEEEAVRLFIEWLKQGGPSKEIISGGGKCNTATCVLGRLSQELHRLQ TYPRTNTGSNTY-NH2 [Cmpd 2A]”, for which, in series [1], the “ED50 in OGTT” value was 1.4 nmol/kg. Further, in series [2], the HbA1c result is “HbA1c reduction”, the body weight entry is given as “body weight loss” and the fasted blood glucose entry is “fasted blood glucose-lowering”. Also, in series [3], the metabolites detected entry was “No metabolites were detected”.
